Assay results taken from patent US20040071718A1, “Local nasal immunotherapy for allergen-induced airway inflammation” (priority 2002, published 2004).

Key:
Type in all cases: in vivo
Balb/c mice [1] = assay: Dp2 specific IgG1, IgG2a and IgE in sera (ELISA) after LNIT; conditions: for Dp2 specific IgG1 production in the sera: Example 1, FIG. 2A; for Dp2 specific IgG1 production in the sera / Dp2 specific IgG2a production in the sera / Dp2 specific IgE production in the sera: compared with NS group; for Dp2 specific IgG2a production in the sera: Example 1, FIG. 2B; for Dp2 specific IgE production in the sera: Example 1, FIG. 2C
Method: Male Balb/c mice were obtained from the National Laboratory Breeding Research Center in Taiwan and were raised in a specific pathogen-free environment. The mice used were between six and eight weeks of age. Groups of six mice were caged separately according to their treatment. Recombinant Dermatophoides pteronyssinus group 2 (rDp2) was prepared as previously described(Tsai J J, et al. Int Arch Allergy Immunol 2000;121:205-10). Dp2 28-40 and Dp2 28-40A were obtained from Dr. Jonathan Lamb (Respiratory Medicine Unit, Edinburgh University, Medical School, Edinburgh, UK) (Verhoef A, and Lamb J R. J Immunol 2000;164:6034-6040). FIP was obtained from Dr. Ko Jiunn-Liang (Institute of Toxicology, Chung Shan Medical University, Taichung, R O C) (J L Ko, et al. Eur. J. Biochem. 1995;228:244-249).
(§1) Mice were immunized by way of an intraperitoneal (IP) injection of 1 μg/0.1 mL rDp2 emulsified in 4.0 mg/0.062mL aluminum hydroxide Al(OH)3 (Whitehall Lab Ltd. Punchbowl, NSW, Australia) on day 0 and day 7. Following immunization, local nasal immunotherapy (LNIT) was conducted daily from day 14 to day 35 with Dp2 28-40, Dp2 28-40A, FIP alone or FIP mixed with either Dp2 28-40 or Dp2 28-40A (FIP, 50 μg/mouse/day; Dp2 peptide, 1 μg/20 μL) in PBS with 10% glycerol. Normal saline (NS) and irrelevant allergen Bt were used as a negative control. […] On day 28, mice were lightly anesthetized with an IP injection of 60 mg/kg of sodium pentobarbital (Sigma Chemical Co., St Louis, Mo., U.S.A.) and inoculated intratracheally (IT) with 1 μg/50 μL of rDp 2 on day 28 and day 35. Two days subsequent to the second IT inoculation, the mice were sacrificed following the assessment of their pulmonary function (FIG. 1).
Blood was obtained from the retro-orbital venous plexus at the commencement and end of the experimental program. Serum IgE, IgG1 and IgG2a titers of anti-Dp2 antibodies were determined using an enzyme-linked immunosorbent assay (ELISA) technique. Microtiter plates (Nunc Lab, Ill., U.S.A.) were coated with 100 μL Dp2 overnight at a concentration of 0.5 μg/mL and left in a 4° C. refrigerator. Microtiter-plate nonspecific binding sites were blocked with 3% BSA in PBS for two hours at room temperature. Plates were washed with PBS-Tween-20 (PBST) three times and stored at −70° C. prior to subsequent use. Subsequent to the addition of a 1:5 dilution for IgE, a 1:100 dilution for IgG1 and a 1:5 dilution for IgG2a of mice serum, plates were incubated at 4° C. overnight, and then washed three times before the antibody (Horse radish peroxidase-conjugated goat anti-mouse IgE and IgG2a Ab 1:800, IgG1 Ab 1:2,000 Southern Biotech Assoc, Inc, Birmingham, Ala., U.S.A.) was added. Following a one-hour incubation at 37° C. and three washes with PBST, the enzyme substrate (2,2″-Azino-bis(3-ethylbenzothiazolin-6-sulfonic acid diammonium salt; Bio-Rad, USA) was added. The reaction was stopped using 50 μL 4N H2SO4 after the reaction had been allowed to continue for 15 minutes, following which the optical density was measured at 450nm using a multiscan spectrophotometer (model A-5682, SLT Lab Instruments, Salzburg, Austria). Results were expressed as ELISA units (EU), one EU being defined as the reciprocal value of the serum dilution that elicited an optical density of 1.0. Such a value was selected so as to always lie within the linear component of the dilution curve. To assure reproducibility, a known serum was included with each test as a standard.

Balb/c mice [2] = assay: Pulmonary function: airway hypersensitivity to methacholine (Penh, barometric plethysmograph) after LNIT; conditions: compared to NS; for Penh after methacholine challenge, early phase: Example 1, FIG. 5A, 30 min after rDp2 IT challenge; for Penh after methacholine challenge, late phase: Example 1, FIG. 5B, 24hrs after rDp2 IT challenge
Method: as §1
Each mouse was placed inside a barometric plethysmograph (Buxco Electronics, Troy, N.Y.). The plethysmograph has two chambers: one is the main or animal chamber (ID 7.5 cm and 5.5 cm height) and the other is the reference chamber (ID 7.5 cm and 3.5 cm height). A differential pressure transducer was employed to detect the pressure difference between the two chambers. The pressure signal was amplified, digitized via an A/D convert card, and sent to a computer with a BioSystem XA program (Buxco, Electronics, Troy, N.Y.), which sampled and calculated the desired respiratory parameters. These parameters were enhanced pause (Penh), tidal volume, breathing frequency, peak inspiratory flow, peak expiratory flow, end-inspiratory pause, and end-expiratory pause.
Aerosol was generated by placing 5 mL of saline or methacholine (Sigma, 1.56 to 25.00 mg/mL) solution in the cup of an ultrasonic nebulizer (DeVilbiss, Somerset, Pa.). It was delivered via a connecting tube and a three-way connector to the animal chamber of the plethysmograph (Hamelmann E, et al. Am J Respir Crit Care Med. 1997;156:766-75). The median size of the aerosol was approximately 3 μm and the range of the sizes was from 1 to 5 μm, according to the manufacturers information. The aerosol usually filled the chamber within 15-20 sec. At first, each mouse inhaled saline aerosol for 3 min. Then the respiratory parameters were measured for 3 min. Then, inhalation of the saline aerosol was replaced by inhalation of the aerosol of methacholine solution for 3 min. In both cases, the aerosol in the chamber was cleared immediately after the exposure. Respiratory parameters were then measured for 3 min following the inhalation of methacholine. A dose-response curve for methacholine was calculated starting from a low dose of 0.031 mg/dL and moving to a higher dose of 25 mg/dL. There was a 15 min interval between exposures. The percentage changes of Penh obtained from each dose of mechacholine were accumulated area under the curve and the values were calculated as means±SEM. Differences in parameters among groups were analyzed by variance.

Balb/c mice [3] = assay: Lung pathology (HE stain) after LNIT; conditions: lung tissue two days after IT with rDp2; for pathology: inflammatory cell infiltration and epithelium damage in the airway: Example 1, FIGS. 6A-6F
Description: FIGS. 6A-6F are photographs showing the pathology of different groups of mice after LNIT. The lung tissues were obtained two days after IT with rDp2. […] (HE stain, ×400).
FIGS. 9A-1˜9F-2 are photographs showing the pathology of different groups of mice following LNIT. The lung tissues were obtained two days subsequent to IT inoculation with rDp2. FIGS. 9A-1, -2: naive mice; FIGS. 9B-1, -2: NS-treated mice; FIGS. 9C-1, -2: DEX-treated mice; FIGS. 9D-1, -2: FIP-fve treated mice; FIGS. 9E-1, -2: Dp2 28-40A+FIP-fve treated mice; and FIGS. 9F-1, -2: Dp2 28-40+FIP-fve treated mice. FIGS. 9A-1, 9B-1, 9C-1, 9D-1, 9E-1 and 9F-1: HE stain, 100×; 9A-2, 9B-2, 9C-2, 9D-2, 9E-2, 9F-2: HE stain, 400×
as §1

## Dp2 28-40: Dermatophoides pteronyssinus group 2 (Dp2) epitope peptide, residues 28-40, amino acid sequence ID No. 1 (IIHRGKPFQLEAV; listed as Dermatophoides pteronyssinus)
Balb/c mice [1]
  Dp2 specific IgG1 production in the sera: significantly reduced
  Dp2 specific IgG2a production in the sera: increased
  Dp2 specific IgE production in the sera: reduction of IgE
Balb/c mice [2]
  Penh after methacholine challenge, early phase: significantly decreased
  Penh after methacholine challenge, late phase: significantly decreased
Balb/c mice [3]
  pathology: inflammatory cell infiltration and epithelium damage in the airway: reductions in airway inflammation

## Dp2 28-40A: altered TCR ligand of Dp2 28-40, residues at positions 34 and 36 substituted by alanine; amino acid sequence ID No. 2 (IIHRGKAFALEAV; listed as Dermatophoides pteronyssinus)
Balb/c mice [1]
  Dp2 specific IgG1 production in the sera: significantly reduced
  Dp2 specific IgG2a production in the sera: increased
  Dp2 specific IgE production in the sera: reduction of IgE was observed only in the group of Dp2 28-40
Balb/c mice [2]
  Penh after methacholine challenge, early phase: significantly decreased
  Penh after methacholine challenge, late phase: significantly decreased
Balb/c mice [3]
  pathology: inflammatory cell infiltration and epithelium damage in the airway: reductions in airway inflammation

B1: FIP: fungal immunomodulatory protein isolated from Flammalina velutipes, amino acid sequence ID No. 3 (protein)
chain: SATSLTFQLAVLVKKIDFDYTPNWGRGTPSSYIDNLTFPKVLTDKKYSYRVVVNGSDLGVESNFAVTPSGGQTINFLQYNKGYGVADTKTIQVFVVIPDTGNSEEYIIAEWKKT
modifications: Flammalina velutipes
Balb/c mice [1]; Example 2, FIG. 7A, compared with NS
  Dp2 specific IgG1 production in sera: significantly reduced
Balb/c mice [1]; Example 2, FIG. 7B, compared with NS
  Dp2 specific IgG2a production in sera: significantly increased
Balb/c mice [1]; Example 2, FIG. 7C, compared with NS
  Dp2 specific IgE production in sera: significantly reduced
Balb/c mice [2]; Example 2, FIG. 8A, 30 min after rDp2 intratracheal challenge
  penh, early phase: significantly decreased
Balb/c mice [2]; Example 2, FIG. 8B, 24 hr
  penh, late phase: did not reach a statistically significant level
Balb/c mice [3]; Example 2, FIGS. 9A-9F
  pathology: inflammatory-cell infiltration and epithelial damage in the airways: reduction in the level of airway inflammation
